Molecules are shown by their SMILES. Structures can show the parent of a compound that is named as a salt. Numbered stars: 1 amine (or outer) side, 2 acyl side, 3 side chain; on linkers, the order of the positions; unused ones are H or OH. Bridge positions count the residues as written; N and C are the ends. Square brackets hold non-standard residues; d marks the D form. Peptide text beside a SMILES is read from it. * marks the point of attachment. Trp(1-CH2CO2Me) = COC(=O)Cn1cc(C[C@H](N)C(=O)O)c2ccccc21; Trp(1-CH2COOH) = N[C@@H](Cc1cn(CC(=O)O)c2ccccc12)C(=O)O; X2 = C/C(=N\C#N)NC[C@H](N[*:1])C(=O)[*:2]; Octyloxycarbonyl = CCCCCCCCOC(=O)*; Hyp = O=C(O)[C@@H]1C[C@@H](O)CN1; Myristoyl = CCCCCCCCCCCCCC(=O)*; NMeNle = CCCC[C@H](NC)C(=O)O; Decanoyl = CCCCCCCCCC(=O)*; Ethoxycarbonyl = CCOC(=O)*; NMeA = CN[C@@H](C)C(=O)O; Dab = NCC[C@H](N)C(=O)O; X13 = CCCCCCCCCCOC(=O)*; Dap = NC[C@H](N)C(=O)O; Hexanoyl = CCCCCC(=O)*; Boc = CC(C)(C)OC(=O)*; Tfa = O=C(C(F)(F)F)*; X3 = O=C(OCCF)*

The test concerns the target T1, PD-1/PD-L1 (Homo sapiens, UniProt Q9NZQ7).
T1 construct: TVMV protease site linker (C); made in house; host or cells: HEK293T cells
Nature of the test: PD-1/PD-L1 Homogenous Time-Resolved Fluorescence (HTRF) binding assay. The following applies: PD-L1-His 10 nM final, PD-1-Ig 20 nM final; inhibitors pre-incubated with PD-L1-His for 15 m. An excerpt: The ability of the compounds of formula (I) to bind to PD-L1 was investigated using a PD-1/PD-L1 Homogenous Time-Resolved Fluorescence (HTRF) binding assay.
The interaction of PD-1 and PD-L1 can be assessed using soluble, purified preparations of the extracellular domains of the two proteins. The PD-1 and PD-L1 protein extracellular domains were expressed as fusion proteins with detection tags, for PD-1, the tag was the Fc portion of Immunoglobulin (PD-1-Ig) and for PD-L1 it was the 6 histidine motif (PD-L1-His). All binding studies were performed in an HTRF assay buffer consisting of dPBS supplemented with 0.1% […] bovine serum albumin and 0.05% (v/v) Tween-20. For the h/PD-L1-His binding assay, inhibitors were pre-incubated with PD-L1-His (10 nM final) for 15 m in 4 μl of assay buffer, followed by addition of PD-1-Ig (20 nM final) in 1 μl of assay buffer and further incubation for 15 m. HTRF detection was achieved using europium cryptate-labeled anti-Ig (1 nM final) and allophycocyanin (APC) labeled anti-His (20 nM final). Antibodies were diluted in HTRF detection buffer and 5 μl was dispensed on top of the binding reaction. The reaction mixture was allowed to equilibrate for 30 minutes and the resulting signal (665 nm/620 nm ratio) was obtained using an EnVision fluorometer. Additional binding assays were established between the human proteins PD-1-Ig/PD-L2-His (20 & 5 nM, respectively) and CD80-His/PD-L1-Ig (100 & 10 nM, respectively).
Recombinant Proteins: Human PD-1 (25-167) with a C-terminal human Fc domain of immunoglobulin G (Ig) epitope tag [hPD-1 (25-167)-3S-IG] and human PD-L1 (18-239) with a C-terminal His epitope tag [hPD-L1(18-239)-TVMV-His] were expressed in HEK293T cells and purified sequentially by Protein A affinity chromatography and size exclusion chromatography. Human PD-L2-His and CD80-His was obtained through commercial sources.
Table 3 lists the IC50 values for representative examples of this disclosure measured in the PD-1/PD-L1 Homogenous Time-Resolved Fluorescence (HTRF) binding assay.
Background: TR-FRET usually uses a lanthanide donor and a delayed reading to cut background.
As a reminder, the IC50 is the concentration that inhibits the measured activity by half. With `CCCCCCCCCC(=O)NCC[C@@H]1NC(=O)[C@H](Cc2c[nH]c3ccccc23)NC(=O)[C@@H]2C[C@@H](O)CN2C(=O)[C@H](CC(C)C)NC(=O)[C@H](CNC(=O)CCCCCCCCC)NC(=O)[C@@H]2CCCN2C(=O)[C@H](CC(N)=O)NC(=O)[C@H](C)N(C)C(=O)[C@H](Cc2ccc(O)cc2)NC(=O)CSC[C@@H](C(=O)NCC(N)=O)NC(=O)[C@H](CC(C)C)NC(=O)[C@H](CCCC)N(C)C(=O)[C@H](CCCC)N(C)C(=O)[C@H](Cc2cn(CC(=O)O)c3ccccc23)NC1=O` [Example 1003] ({CH2CO}-Y[NMeA]NP[Dap](Decanoyl)L[Hyp]W[Dab](Decanoyl)[Trp(1-CH2COOH)][NMeNle][NMeNle]LCG-NH2; thioether N-14), the IC50 was 0.037 µM.

The compound `CCCCCCCCCC(=O)NCC[C@@H]1NC(=O)[C@H](Cc2c[nH]c3ccccc23)NC(=O)[C@@H]2C[C@@H](O)CN2C(=O)[C@H](CC(C)C)NC(=O)[C@H](CNC(=O)CCCCCCCCC)NC(=O)[C@@H]2CCCN2C(=O)[C@H](CC(N)=O)NC(=O)[C@H](C)N(C)C(=O)[C@H](Cc2ccc(O)cc2)NC(=O)CSC[C@@H](C(=O)NCC(N)=O)NC(=O)[C@H](CC(C)C)NC(=O)[C@H](CCCC)N(C)C(=O)[C@H](CCCC)N(C)C(=O)[C@H](Cc2cn(CC(=O)OC)c3ccccc23)NC1=O` [Example 1004] ({CH2CO}-Y[NMeA]NP[Dap](Decanoyl)L[Hyp]W[Dab](Decanoyl)[Trp(1-CH2CO2Me)][NMeNle][NMeNle]LCG-NH2; thioether N-14) returned an IC50 greater than 10 µM.

`CCCCCCCCCCCCCC(=O)NCC[C@@H]1NC(=O)[C@H](Cc2c[nH]c3ccccc23)NC(=O)[C@@H]2C[C@@H](O)CN2C(=O)[C@H](CC(C)C)NC(=O)[C@H](CNC(=O)CCCCCCCCCCCCC)NC(=O)[C@@H]2CCCN2C(=O)[C@H](CC(N)=O)NC(=O)[C@H](C)N(C)C(=O)[C@H](Cc2ccc(O)cc2)NC(=O)CSC[C@@H](C(=O)NCC(N)=O)NC(=O)[C@H](CC(C)C)NC(=O)[C@H](CCCC)N(C)C(=O)[C@H](CCCC)N(C)C(=O)[C@H](Cc2cn(CC(=O)OC)c3ccccc23)NC1=O` [Example 1005] ({CH2CO}-Y[NMeA]NP[Dap](Myristoyl)L[Hyp]W[Dab](Myristoyl)[Trp(1-CH2CO2Me)][NMeNle][NMeNle]LCG-NH2; thioether N-14) yielded an IC50 greater than 10 µM.

With `CCCCCC(=O)NCC[C@@H]1NC(=O)[C@H](Cc2c[nH]c3ccccc23)NC(=O)[C@@H]2C[C@@H](O)CN2C(=O)[C@H](CC(C)C)NC(=O)[C@H](CNC(=O)CCCCC)NC(=O)[C@@H]2CCCN2C(=O)[C@H](CC(N)=O)NC(=O)[C@H](C)N(C)C(=O)[C@H](Cc2ccc(O)cc2)NC(=O)CSC[C@@H](C(=O)NCC(N)=O)NC(=O)[C@H](CC(C)C)NC(=O)[C@H](CCCC)N(C)C(=O)[C@H](CCCC)N(C)C(=O)[C@H](Cc2cn(CC(=O)OC)c3ccccc23)NC1=O` [Example 1006] ({CH2CO}-Y[NMeA]NP[Dap](Hexanoyl)L[Hyp]W[Dab](Hexanoyl)[Trp(1-CH2CO2Me)][NMeNle][NMeNle]LCG-NH2; thioether N-14), the half-maximal inhibitory concentration (IC50) is 0.022 µM.

For the compound `CCCC[C@H]1C(=O)N(C)[C@@H](CCCC)C(=O)N[C@@H](CC(C)C)C(=O)N[C@H](C(=O)NCC(N)=O)CSCC(=O)N[C@@H](Cc2ccc(O)cc2)C(=O)N(C)[C@@H](C)C(=O)N[C@@H](CC(N)=O)C(=O)N2CCC[C@H]2C(=O)N[C@@H](CNC(=O)C(F)(F)F)C(=O)N[C@@H](CC(C)C)C(=O)N2C[C@H](O)C[C@H]2C(=O)N[C@@H](Cc2c[nH]c3ccccc23)C(=O)N[C@@H](CCNC(=O)C(F)(F)F)C(=O)N[C@@H](Cc2cn(CC(=O)O)c3ccccc23)C(=O)N1C` [Example 1007] ({CH2CO}-Y[NMeA]NP[Dap](Tfa)L[Hyp]W[Dab](Tfa)[Trp(1-CH2COOH)][NMeNle][NMeNle]LCG-NH2; thioether N-14), the IC50 is 0.0033 µM.

Turning to `CCCC[C@H]1C(=O)N(C)[C@@H](CCCC)C(=O)N[C@@H](CC(C)C)C(=O)N[C@H](C(=O)NCC(N)=O)CSCC(=O)N[C@@H](Cc2ccc(O)cc2)C(=O)N(C)[C@@H](C)C(=O)N[C@@H](CC(N)=O)C(=O)N2CCC[C@H]2C(=O)N[C@@H](CN/C(C)=N/C#N)C(=O)N[C@@H](CC(C)C)C(=O)N2C[C@H](O)C[C@H]2C(=O)N[C@@H](Cc2c[nH]c3ccccc23)C(=O)N[C@@H](CCN)C(=O)N[C@@H](Cc2cn(CC(=O)O)c3ccccc23)C(=O)N1C` [Example 1009] ({CH2CO}-Y[NMeA]NP[X2]L[Hyp]W[Dab][Trp(1-CH2COOH)][NMeNle][NMeNle]LCG-NH2; thioether N-14), the IC50 was found to be 0.0055 µM.

As for `CCCC[C@H]1C(=O)N(C)[C@@H](CCCC)C(=O)N[C@@H](CC(C)C)C(=O)N[C@H](C(=O)NCC(N)=O)CSCC(=O)N[C@@H](Cc2ccc(O)cc2)C(=O)N(C)[C@@H](C)C(=O)N[C@@H](CC(N)=O)C(=O)N2CCC[C@H]2C(=O)N[C@@H](CNC(=O)OCC)C(=O)N[C@@H](CC(C)C)C(=O)N2C[C@H](O)C[C@H]2C(=O)N[C@@H](Cc2c[nH]c3ccccc23)C(=O)N[C@@H](CCNC(=O)OCC)C(=O)N[C@@H](Cc2cn(CC(=O)OC)c3ccccc23)C(=O)N1C` [Example 1010] ({CH2CO}-Y[NMeA]NP[Dap](Ethoxycarbonyl)L[Hyp]W[Dab](Ethoxycarbonyl)[Trp(1-CH2CO2Me)][NMeNle][NMeNle]LCG-NH2; thioether N-14), the IC50 came to 0.0039 µM.

In turn, `CCCC[C@H]1C(=O)N(C)[C@@H](CCCC)C(=O)N[C@@H](CC(C)C)C(=O)N[C@H](C(=O)NCC(N)=O)CSCC(=O)N[C@@H](Cc2ccc(O)cc2)C(=O)N(C)[C@@H](C)C(=O)N[C@@H](CC(N)=O)C(=O)N2CCC[C@H]2C(=O)N[C@@H](CNC(=O)OCCF)C(=O)N[C@@H](CC(C)C)C(=O)N2C[C@H](O)C[C@H]2C(=O)N[C@@H](Cc2c[nH]c3ccccc23)C(=O)N[C@@H](CCNC(=O)OCCF)C(=O)N[C@@H](Cc2cn(CC(=O)OC)c3ccccc23)C(=O)N1C` [Example 1012] ({CH2CO}-Y[NMeA]NP[Dap](X3)L[Hyp]W[Dab](X3)[Trp(1-CH2CO2Me)][NMeNle][NMeNle]LCG-NH2; thioether N-14) had an IC50 of 0.019 µM.

For the compound `CCCCCCCCOC(=O)NCC[C@@H]1NC(=O)[C@H](Cc2c[nH]c3ccccc23)NC(=O)[C@@H]2C[C@@H](O)CN2C(=O)[C@H](CC(C)C)NC(=O)[C@H](CNC(=O)OCCCCCCCC)NC(=O)[C@@H]2CCCN2C(=O)[C@H](CC(N)=O)NC(=O)[C@H](C)N(C)C(=O)[C@H](Cc2ccc(O)cc2)NC(=O)CSC[C@@H](C(=O)NCC(N)=O)NC(=O)[C@H](CC(C)C)NC(=O)[C@H](CCCC)N(C)C(=O)[C@H](CCCC)N(C)C(=O)[C@H](Cc2cn(CC(=O)OC)c3ccccc23)NC1=O` [Example 1013] ({CH2CO}-Y[NMeA]NP[Dap](Octyloxycarbonyl)L[Hyp]W[Dab](Octyloxycarbonyl)[Trp(1-CH2CO2Me)][NMeNle][NMeNle]LCG-NH2; thioether N-14), the IC50 turned out to be 1.1 µM.

The compound `CCCC[C@H]1C(=O)N(C)[C@@H](CCCC)C(=O)N[C@@H](CC(C)C)C(=O)N[C@H](C(=O)NCC(N)=O)CSCC(=O)N[C@@H](Cc2ccc(O)cc2)C(=O)N(C)[C@@H](C)C(=O)N[C@@H](CC(N)=O)C(=O)N2CCC[C@H]2C(=O)N[C@@H](CNC(=O)OC(C)(C)C)C(=O)N[C@@H](CC(C)C)C(=O)N2C[C@H](O)C[C@H]2C(=O)N[C@@H](Cc2c[nH]c3ccccc23)C(=O)N[C@@H](CCNC(=O)OC(C)(C)C)C(=O)N[C@@H](Cc2cn(CC(=O)O)c3ccccc23)C(=O)N1C` [Example 1014] ({CH2CO}-Y[NMeA]NP[Dap](Boc)L[Hyp]W[Dab](Boc)[Trp(1-CH2COOH)][NMeNle][NMeNle]LCG-NH2; thioether N-14) gave an IC50 of 0.0061 µM.

The compound `CCCCCCCCCCOC(=O)NCC[C@@H]1NC(=O)[C@H](Cc2c[nH]c3ccccc23)NC(=O)[C@@H]2C[C@@H](O)CN2C(=O)[C@H](CC(C)C)NC(=O)[C@H](CNC(=O)OCCCCCCCCCC)NC(=O)[C@@H]2CCCN2C(=O)[C@H](CC(N)=O)NC(=O)[C@H](C)N(C)C(=O)[C@H](Cc2ccc(O)cc2)NC(=O)CSC[C@@H](C(=O)NCC(N)=O)NC(=O)[C@H](CC(C)C)NC(=O)[C@H](CCCC)N(C)C(=O)[C@H](CCCC)N(C)C(=O)[C@H](Cc2cn(CC(=O)OC)c3ccccc23)NC1=O` [Example 1015] ({CH2CO}-Y[NMeA]NP[Dap](X13)L[Hyp]W[Dab](X13)[Trp(1-CH2CO2Me)][NMeNle][NMeNle]LCG-NH2; thioether N-14) displayed an IC50 greater than 10 µM.

(Values after patent US20220251141A1, “IMMUNOMODULATORS” (Bristol-Myers Squibb Company, priority 2019, published 2022).)
